Measured values: PubChem BioAssay (NCI)
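All cell lines were grown in 96-well plates and treated with compound for 48 hours. The concentration for 50% growth inhibition is given as GI50. TGI: concentration producing complete growth inhibition.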

How the values were obtained:
Experiment in all cases: DTP human tumour cell line panel, 48 h
[1] = test system: A549 NSCLC
[2] = test system: HCT-116 colon
[3] = test system: HS 578T breast
[4] = test system: IGROV1 ovarian
[5] = test system: OVCAR-3 ovarian
[6] = test system: OVCAR-8 ovarian
[7] = test system: RPMI-8226 leukemia
[8] = test system: SW-620 colon
[9] = test system: UACC-257 melanoma
[10] = test system: M14 melanoma

Compound	GI50 [1] [µM]	TGI [1] [µM]	GI50 [2] [µM]	TGI [2] [µM]	GI50 [3] [µM]	TGI [3] [µM]	GI50 [4] [µM]	TGI [4] [µM]	GI50 [5] [µM]	TGI [5] [µM]	GI50 [6] [µM]	TGI [6] [µM]	GI50 [7] [µM]	TGI [7] [µM]	GI50 [8] [µM]	TGI [8] [µM]	GI50 [9] [µM]	TGI [9] [µM]	TGI [10] [µM]	GI50 [10] [µM]
O=C(Oc1cccnc1)c1cccnc1Nc1ccnc(C(F)(F)F)c1	> 100	> 100	1.76	3.71	32.2	> 100	9.51	> 100	18.3	62.2	64.9	> 100	3.94	23.7	5.47	> 100	27.1	> 100		
IC[P+]1(c2ccccc2)CCCC1		> 100		> 100				> 100		> 100		> 100		> 100		> 100		> 100	> 100	
Cn1c(=O)c(N=Nc2c(=O)n(C)c(=O)n3c2[nH]c2ccccc23)c2[nH]c3ccccc3n2c1=O		> 100		> 100				> 100		> 100		> 100		> 100		> 100		> 100	> 100	
COc1ccc2nccc(C3=CCC4CCN(C(=O)c5ccccc5)C3C4)c2c1 (configuration not stated)		> 100		> 100				> 100		> 100		> 100		> 100		> 100		> 100	> 100	
O=c1ncccn1[C@@H]1O[C@H](CO)[C@H](O)C1O (some centres not stated)		> 100		> 100				> 100		> 100		> 100		> 100		> 100		> 100	> 100	
C=C(c1ccccc1)C1(O)CCCCC1N (configuration not stated)		> 100		> 100				> 100		> 100		> 100		> 100		> 100		> 100	> 100	
CCOC(=O)NC(=O)c1cn(CCN2CCN(C(=O)NCCCCCCNC(=O)N3CCN(CCn4cc(C(=O)NC(=O)OCC)c(=O)[nH]c4=O)CC3)CC2)c(=O)[nH]c1=O		> 100		> 100				> 100		> 100		> 100		> 100		> 100		> 100	> 100	
CN(C(=O)/C=C/c1ccccc1)C1C2CN3CCC(O2)C13 (configuration not stated)		> 100		> 100				> 100		> 100		> 100				> 100		> 100	> 100	
Cc1c(OC(C)C(=O)O)ccc2c(-c3ccccc3)cc(=O)oc12 (configuration not stated)		> 100		> 100				> 100		> 100		> 100		> 100		> 100		> 100	> 100	
CC(=O)OCc1c2ccccc2c(C)c2c1cc(F)c1ccccc12		> 100		> 100				75.2		57.5		47.4				67.3		> 100	> 100	
Cn1ccnc1CCc1c(Cl)cccc1Cl		> 100		> 100				> 100		> 100		> 100		> 100		> 100		> 100	> 100	
O=C1C2C3C=C4c5ccccc5N(c5ccccc5)C4(C2C(=O)N1c1ccccc1)C1C(=O)N(c2ccccc2)C(=O)C31 (configuration not stated)		> 100		> 100								> 100				> 100		> 100	> 100	
COc1ccc(-c2noc(C(=O)O)c2-c2cc(OC)c(OC)c(OC)c2)cc1	4.75	> 100	0.752	> 100	3.38	> 100	4.91	> 100	1.71	> 100	5.61	> 100	4.01	> 100	1.53	> 100	> 100	> 100		
O=C1Nc2ccccc2C1(O)C/C(=N/O)c1ccc2ccccc2c1 (configuration not stated)		> 100		> 100						> 100		> 100		> 100		> 100		> 100	> 100	
CC1=C(C(=O)Nc2ccccc2C)C(c2ccc(Cl)cc2)C(C(=O)Nc2ccccc2C)=C(C)N1		> 100		> 100				> 100		> 100		> 100		> 100		> 100		> 100	> 100	
COc1cc(/C=C/C(=O)/C=C/c2cc(OC)c3c(c2)OCO3)cc2c1OCO2	3.05	15.1	1.21	2.78	95.3	> 100	4.78	> 100	7.66	> 100	2.83	12.9			3.38	> 100	3.52	41.9	19.4	4.03
CCc1cccc(C)c1NS(=O)(=O)c1ccccc1		> 100		> 100				> 100		> 100		> 100		> 100		> 100		> 100	> 100	
CC[O-].CC[O-].O=C([CH-]C(=O)c1ccccc1)CCCCCCCCC(=O)[CH-]C(=O)c1ccccc1.[Ti+4]	> 100	> 100					> 100	> 100	0.756	> 100	52.1	> 100	> 100	> 100	> 100	> 100	> 100	> 100	> 100	> 100
O=C1C[C@H]2CCCN2[C@@H](c2ccccc2)C1		> 100		> 100				> 100		> 100		> 100		> 100		> 100		> 100	> 100	
Cc1cc2c(C)nn(Cc3ccccc3)c2c(C(=O)O)c1C		> 100		> 100				> 100		> 100		> 100		> 100		> 100		> 100		
